These results are taken from patent US12017996B2, “Substituted quinolines and formulations thereof” (JIANGSU MEDOLUTION LTD, priority 2021, dated 2024).

Format in all cases: physicochemical
One data set in a line: Dissociation constants. The text has this:
(§1) For example, Compound A is soluble in acetic acid and hydrochloric acid solution (0.1 M). […] Compound A's dissociation constants: pKa1 is 4.99; pKa2 is 10.26.

Data set [1] in a line: Compatibility test of excipients (impurities over time). As for the experimental part:
Each of mannitol, sodium starch glycolate, hydroxpropyl cellulose and glyceryl behenate was individually mixed with Compound A. The resulting mixture was tested for the impurities over time under the following conditions: lumination 4500±500 Lux; high humidity at 90±5%; high temperature at 40±2° C.; and accelerated condition at humidity of 75±5% and temperature of 40±2° C. Testing were done at day 0, day 7 and day 14. The percentage of the total impurities and the SZMD4-Z8 impurity were recorded together with other data.

Data set [2] is described as follows: Solubility of Compound A in solvents.
Source text: as §1

Where [3] appears, read: high temperature 40±2° C., day 7.
Setting [4] is: high temperature 40±2° C., day 14.
Where [5] appears, read: lumination 4500±500 Lux, day 14.

Regarding `C#Cc1cccc(Nc2c(C#N)cnc3cc(OCC)c(NC(=O)/C=C/CN(C)C)cc23)c1.O=C(O)/C=C\C(=O)O` [Compound A, (E)-N-[3-cyano-7-ethoxy-4-(3-ethynylanilino)-6-quinolyl]-4-(dimethylamino)but-2-enamide maleate], the “dissociation constant pKa1” value in the data set “Dissociation constants” is reported as 4.99. For the same compound, the “dissociation constant pKa2” value in “Dissociation constants” is recorded as 10.26. Moreover, the SZMD4-Z8 impurity is recorded as 0.03% in data set [1] (day 0); 0.04% in data set [1] (high humidity 90±5%, day 7); 0.04% in data set [1] (high humidity 90±5%, day 14); 0.03% in data set [1] (setting [3]); 0.03% in data set [1] (setting [4]); 0.03% in data set [1] (lumination 4500±500 Lux, day 7). For the same compound, the SZMD4-Z8 impurity in data set [1] (setting [5]) came out at 0.03%. Further, the “Total Impurities” value in data set [1] (day 0) is 0.29%; in data set [1] (high humidity 90±5%, day 7), 0.31%; in data set [1] (high humidity 90±5%, day 14), 0.30%; in data set [1] (setting [3]), 0.31%; in data set [1] (setting [4]), 0.30%; in data set [1] (lumination 4500±500 Lux, day 7), 0.40%. The “Total Impurities” value in data set [1] (setting [5]) was 0.44%%. For the same compound, the solubility entry in data set [2] (in acetic acid) is recorded as “soluble”; in data set [2] (in acetonitrile), “slightly soluble”; in data set [2] (in ethanol), “slightly soluble”; in data set [2] (in hydrochloric acid solution (0.1 M)), “soluble”; in data set [2] (in n-propanol) it was “hardly soluble”; in data set [2] (in sodium hydroxide solution (0.1 M)), “not soluble”. Also, the solubility result in data set [2] (in water) was “extremely slightly soluble”.
